Data set [1] can be described thus: Basic toxicity study in healthy mice. It counts as in vivo. To be noted: for cage-side observations (food consumption, daily activities, toxic effect) / histology of livers and kidney: 13 days. The method, then: (§1) For the assessment of toxicity of Substance X, healthy mice were treated with Substance X by intravenous injection at a dose of 100 mg/kg or 200 mg/kg once every other day for 13 days. Body weight of each mouse was measured periodically from Day 1 to Day 13 of the treatment. Cage-side observations including: mortality, moribundity, food consumption and activities were performed once every other day. Blood samples were taken on Day 1 and Day 13 for measurement of blood cell counts. To assess toxicity of Substance X on mice with tumors, mice bearing subcutaneous PC-3 tumors were treated with Substance X at a high dose of 200 mg/kg once every other day for 19 days. Body weight was measured and cage-side observations were performed once every other day. Lymph node, liver, lung, spleen and femurs were removed from each mouse and were examined. Toxicity of Substance X was also assessed in tumor-bearing mice treated with 80 mg/kg of Substance X daily as described above.

Data set [2] in a line: Safety in PC-3 tumor-bearing xenograft mice. It counts as in vivo. To be noted: PC-3 tumor-bearing mice, 40 mg/kg daily for 30 days. The procedure:
as §1
We then tested the high dose of Substance X in PC-3 xenograft mice, thereby mimicking its effect on prostate cancer patients. We generated mouse xenograft of human PC-3 tumors by subcutaneous implantation of tumor cells into nude mice. We further tested safety of the dose of 40 mg/kg which generated significant anti-tumor activity in the xenograft mouse model.

Data set [3] relates to PC-3 tumors. The data set can be described thus: PC-3 prostate cancer xenograft mouse model of tumor growth and metastasis. It counts as in vivo, athymic NMRI nude mice. An excerpt:
Athymic NMRI nude mice between 6-8 weeks old (Taconic; Bomholt, Denmark) were used. Prostate cancer xenograft mouse model was created by implanting hormone-independent PC3 tumor cells subcutaneously into athymic nude mice as previously described (Wegiel B, Bjartell A, Tuomela J, et al.: Multiple cellular mechanisms related to cyclin Al in prostate cancer invasion and metastasis. Journal of the National Cancer Institute 100: 10221036, 2008).
PC-3 cells were purchased from American Type Culture Collection (Manassas, V A) and cultured in RPMI-1640 supplemented with 10% Fetal Bovine Serum. PC-3 cells at 1×10^6/per mouse were used. The mice were divided into three groups (6 mice per group). The first group allowed tumors to grow between 170-400 mm^3 in size before starting the treatment. The second group allowed tumors to grow between 550-650 mm^3 in size before starting the treatment. The third group allowed tumors to grow between 700-800 mm^3 in size before starting the treatment. The tumor diameters were measured twice weekly using calipers. The tumor volumes were calculated using an equation of a*(b2/2) where a and b represent the length and width of the tumor, respectively.
The treatment of the compound of Example 1 (also referred to herein as “Substance X”) or PBS containing 5% DMSO (vehicle) as Control was started when tumors reached the desired size as described above. In the first experimental setting, Substance X was administered intravenously once every other day. In the second experimental setting, Substance X was administrated orally once every other day. Tumor growth was assessed periodically as described in Results. The mice were sacrificed after treatment by euthanization via isofluorene inhalation. Lymph node, liver, lung, spleen and femurs were removed from each mouse. Half of the tumor tissues were used for histology and immunohistochemical analysis. For histology analysis, tissues were fixed in 4% paraformaldehyde and embedded in paraffin. The sections were stained with hematoxylineosin (H&E) or imunohistochemical stained with antibodies and analyzed under an optical microscope. The other half of the tissues were used for protein analysis and thus were snapfrozen in liquid nitrogen. The body weights of the mice on the first and last day of the treatment were collected and compared. Tumor invasion and metastasis were examined in various tissues from the sacrificed mice.
For a comparison study, mice with tumors at 190-250 mm^3 in size were treated with the cytotoxic drug Etoposide (Sigma) at a dose of 20 mg/kg via IV injection once every other day. The tumor size was measured as described in the Results. Three mice were treated with Etoposide or the vehicle as Control. The mice were sacrificed and the tissues were collected as described above.

The test system of the next data set is VEGF. Put plainly: Immunohistochemical analysis of VEGF expression in PC-3 xenograft tumors. It counts as in vivo, human. Conditions: versus Control mice (FIG. 5). The method, then: (§2) FIG. 5: Effect of Substance X on Expression of VEGF and VEGF Receptor 2 Immunohistochemical analysis of VEGF and VEGF receptor 2 was performed in tumors from the Control mice and the mice treated with Substance X. The representative pictures are shown. Tumor sections (Control) or (Substance X) were stained with antibody against human VEGF and VEGF Receptor 2.
(§3) The treatment of the compound of Example 1 (also referred to herein as “Substance X”) or PBS containing 5% DMSO (vehicle) as Control was started when tumors reached the desired size as described above. In the first experimental setting, Substance X was administered intravenously once every other day. […] Tumor growth was assessed periodically as described in Results. […] The sections were stained with hematoxylineosin (H&E) or imunohistochemical stained with antibodies and analyzed under an optical microscope. […]
(§4) Immunohistochemistry on tumor tissues was performed as previously described (Wegiel B, Bjartell A, Ekberg J, Gadaleanu V, Brunhoff C and Persson J L: A role for cyan AI in mediating the autocrine expression of vascular endothelial growth factor in prostate cancer. Oncogene 24: 6385-6393, 2005) by using antibodies to human CD-31 (Dako, Goistrup, Denmark A/S). […] For analysis of tumor angiogenesis, tumor sections stained with antibody against CD3I were examined and quantified. […]

Another data set concerns VEGF receptor 2. Put plainly: Immunohistochemical analysis of VEGF receptor 2 expression in PC-3 xenograft tumors. The class given is in vivo, human. To be noted: versus Control mice (FIG. 5). The method, then:
as §2, §3, §4

A further data set relates to CD31. The data set can be described thus: Quantification of angiogenesis by CD31 immunohistochemistry in PC-3 xenograft tumors. It counts as in vivo, human. Conditions: versus Control tumors (FIG. 6). The procedure: B. Immunohistochemical analysis of tumors from the Control mice and mice treated with Substance X for the expression of CD31. Tumor sections (Control) or (Substance X) were stained with antibody against CD31. (B). Regions of high vascular density at centre or the edge areas within the tumors were examined. The number of CD31-positive pixels per microscopic field was recorded. At least two sections per tumor and three views per section were determined. The statistical T-test was performed and was two-sided and P value less than 0.05 was considered to be statistically significant, P value less than 0.01 is labelled as two asterisks.
Immunohistochemistry on tumor tissues was performed as previously described (Wegiel B, Bjartell A, Ekberg J, Gadaleanu V, Brunhoff C and Persson J L: A role for cyan AI in mediating the autocrine expression of vascular endothelial growth factor in prostate cancer. Oncogene 24: 6385-6393, 2005) by using antibodies to human CD-31 (Dako, Goistrup, Denmark A/S). Antirabbit peroxidase-conjugated secondary antibodies were applied. Diaminobenzidine colorimetric reagent solution (Dako) was used. […] For analysis of tumor angiogenesis, tumor sections stained with antibody against CD3I were examined and quantified. […] The number of CD31-positive pixels per microscopic field was recorded. At least two sections per tumor and three views per section were determined.

The subject of data set [4] is PC-3 prostate cancer cells. Put plainly: Cell proliferation assay (trypan blue viable cell count) and IC50 determination. The class given is cell-based, human. To be noted: PC-3 cells. The method, then:
All new synthesized compounds and Etoposide were first dissolved in 100% DMSO at initial concentration of 100 mM, and then diluted at final concentration of 200 uM in culture medium. Commercial form of Avastin (25 mg/ml) was diluted to appropriate concentrations in culture medium.
Hormone-independent and metastatic PC-3 prostate cancer cells were purchased from the American Type Culture Collection (Manassas, Va., USA) and cultured in RPMI-1640 supplemented with 10% fetal bovine serum. Etoposide was purchased from Sigma, Avastin from Roche.
For cell counting a total of 6×10^4 cells at a density of 0.3×10^6/ml were seeded in 96-well plate. The cells were treated with compounds, Etoposide or Avastin as positive controls at 1 uM, 5 uM, 10 uM, 20 uM, 50 uM, 100 uM for 48 hours. For Avastin 5 uM, 20 uM and 50 uM concentrations were used. The cells were labeled with trypan blue and the viable cells were quantified.

The test system of data set [5] is PC-3 tumors. The data set can be described thus: PC-3 prostate cancer xenograft mouse model of tumor growth and metastasis. It counts as in vivo, athymic NMRI nude mice. To be noted: tumors 500-600 mm3 at start, 40 mg/kg intravenous injection, day 20 (FIG. 2).
The mark [6] stands for this setting: healthy mice, 100 mg/kg i.v. once every other day.

Take `CN1CC(=O)N2[C@H](c3c[nH]c4ccccc34)c3cc4c(cc3C[C@H]2C1=O)OCO4` [Substance X, (5S,9aS)-5-(1H-Indol-3-yl)-8-methyl-7,8,9a,10-tetrahydro-5H-1,3-dioxa-5a,8-diaza-cyclopenta[b]anthracene-6,9-dione]: the “cage-side observations (food consumption, daily activities, toxic effect)” value was “no abnormality on food consumption and daily activities, or any observable toxic effect” in data set [1] (200 mg/kg once every other day); “no abnormality on food consumption and daily activities, or any observable toxic effect” in data set [1] (setting [6]); “no abnormality on food consumption and/or daily activities, or any other observable toxic effect” in data set [2]. The “histology of livers and kidney” value in data set [1] (200 mg/kg once every other day), in data set [1] (setting [6]) and in data set [2] was “no abnormality in histology” in each case. The body weights result in data set [1] (200 mg/kg once every other day, 13 days (FIG. 1B)) is on record as “steady throughout the study period”; in data set [2], “remained constant throughout the period of treatment”. In addition, the “change in body weight” value in data set [1] (healthy mice, 100 mg/kg i.v. once every other day, 13 days (FIG. 1A)) is “no significant change in body weight”. The “tumor size after switch to oral administration” value in the data set with PC-3 tumors [3] (40 mg/kg i.v. for 20 days, from day 21 40 mg/kg oral, versus continuous i.v.) was “slightly larger tumor size than the mice treated by continuous intravenous injection”. Moreover, the “tumor growth (large and invasive tumors, longer treatment)” value in the data set with PC-3 tumors [3] (40 mg/kg intravenous injection for 30 days) is “inhibited throughout the treatment period and the tumors shrank significantly at the end of the treatment”. The “infiltration of tumor cells into secondary sites (metastasis)” value in the data set with PC-3 tumors [3] (40 mg/kg, end of study, histology and immunohistochemical analysis) is given as “no infiltration of tumor cells into secondary sites could be detected”. Besides, the “size of tumors in whole-tumor histology sections” value with PC-3 tumors [3] (VEGF receptor 2 stained sections, versus Control mice (FIG. 6A)) was “smaller than that from the Control mice”. Besides, the oral bioavailability result with PC-3 tumors [3] (inferred from tumor size after oral versus intravenous 40 mg/kg) is on record as “orally bioavailable, yet the oral bioavailability is lower than intravenous injection”. Also, the tumor growth result with PC-3 tumors [3] (tumors 190-240 mm3 at start, 20 mg/kg intravenously, 21 days) is reported as “tumor shrank”. Also, the “tumor growth, oral administration throughout” value in the data set on PC-3 tumors [3] (tumors 300-350 mm3 at start, 40 mg/kg oral (FIG. 3)) is “able to inhibit the tumor growth, although the effect was not as strong as intravenous injection”. Also, in the data set on PC-3 tumors [3] (tumors about 250 mm3, IV once every other day for 14 days, Etoposide 20 mg/kg, Substance X 40 mg/kg (FIG. 4)), the “tumor growth, comparison of Etoposide and Substance X” value is “stronger inhibitory effect on tumors as compared to Etoposide”. Besides, the “expression of VEGF in tumors” value in the data set with VEGF is reported as “significantly down-regulated”. Further, the “expression of VEGFR2 in tumors” value in the data set with VEGF receptor 2 is reported as “significantly down-regulated”. In addition, the “CD31 expression and number of CD31-expressing vessels in tumors” value in the data set with CD31 was “statistically significant decrease”. Further, in data set [4] (Homo sapiens, viable cells after 48 hours, read-out: IC50 for cell growth inhibition), the half-maximal inhibitory concentration (IC50) is 30 µM. Moreover, the “concentration from which statistically significant cell growth inhibition started” value in data set [4] (48 hours) is 5 µM. Further, the “tumor growth (large tumors)” value in the data set on PC-3 tumors [5] is “did not grow but showed a slight decrease in size”.

These data come from patent US9066947B2, “Indolyl-substituted pyrazino[1,2-b]isoquinolines for cancer treatment” (Everest Biosciences, Inc., priority 2009, dated 2015).
